Experiment [1] concerns P. mirabilis. Kind of experiment: Anionic ratio (growth in colistin vs MHB, Alamar Blue fluorescence). The following applies: 4 μg/ml colistin, Ex560/Em590. In kind it is cell-based. As for the experimental part: (§1) P. mirabilis and K. pneumoniae were prepared by diluting colonies into saline to reach a McFarland value of 0.5, which was verified using a spectrophotometer, diluted, and inoculated into 96-well plates containing cation-adjusted Mueller Hinton broth and doubling dilutions of gentamycin (GEN) and ciproflaxin (CIP). Plates were incubated at 35° C., shaking at 150 rpm for 3 hours, after which 10 μl of Alamar Blue were added to each well and plates were incubated for 1 additional hour. After this incubation, Alamar Blue signal was read as the fluorescent signal Ex560/Em590. […] After the final wash, time-resolved fluorescence (TRF) for all wells was read at 330/615 nm.
(§2) The anionic ratios were calculated from the background subtracted fluorescent signal (Ex560/Em590) of bacteria grown in 4 μg/ml colistin divided by the background subtracted fluorescent signal of bacteria grown in MHB. […]

In experiment [2] the test system is K. pneumoniae. Described as above. In kind it is cell-based. The following applies: 4 μg/ml colistin, Ex560/Em590. As for the experimental part:
as §1, §2

For experiment [3], the system named is S. aureus. Nature of the experiment: Rapid AST, vancomycin dilution series read by Eu-cryptate-diamine surface binding (TRF). In kind it is cell-based. The following applies: Staphylococcus aureus, CTAB pretreatment, CTAB removed before probe, TRF 330/615 nm, read-out: minimum inhibitory concentration (MIC). How it is done: S. aureus were prepared by diluting colonies into saline to reach a McFarland value of 0.5, which was verified using a spectrophotometer, diluted, and inoculated into 96-well plates containing cation-adjusted Mueller Hinton broth and doubling dilutions of vancomycin. Plates were incubated at 35° C., shaking at 150 rpm for 3 hours, after which 10 μl of Alamar Blue were added to each well and plates were incubated for 1 additional hour. After this incubation, 100 μl of a 0.03% Cetyltrimethylammonium bromide with 0.1M EDTA solution was added to each well. The plates were placed on a shaker at 450 RPM for 10 minutes, followed by centrifugation at 2500×g for 2.5 minutes. The wells were aspirated and 100 μL PBS with 0.05% Tween-20 (PBST) or 100 μl of a 0.03% Cetyltrimethylammonium bromide with 0.1M EDTA solution was added back into the wells. Ten microliters of Eu-cryptate-diamine (5 ng/well) was added to each well and the plates were shaken for 10 minutes. The plates were then centrifuged, the wells aspirated, and 200 μL 1×PBST were added to each well. These steps were repeated twice. After the final wash, time-resolved fluorescence (TRF) for all wells was read at 330/615 nm.

Experiment [4] has as its system E. coli. The conditions noted are these: E. coli strain tested; values as generally found; cited from earlier work.

Converted amounts (≈) assume the structure as drawn.

In the case of colistin, the “anionic ratio (background subtracted fluorescent signal in colistin divided by signal in MHB)” value in experiment [1] is 0.96; in experiment [2] it was −0.08. With `CN[C@H](CC(C)C)C(=O)N[C@H]1C(=O)N[C@@H](CC(N)=O)C(=O)N[C@H]2C(=O)N[C@H]3C(=O)N[C@H](C(=O)N[C@H](C(=O)O)c4cc(O)cc(O)c4-c4cc3ccc4O)[C@H](O)c3ccc(c(Cl)c3)Oc3cc2cc(c3O[C@@H]2O[C@H](CO)[C@@H](O)[C@H](O)[C@H]2O[C@H]2C[C@](C)(N)[C@H](O)[C@H](C)O2)Oc2ccc(cc2Cl)[C@H]1O` [VAN, vancomycin], the MIC in experiment [3] was 2 µg/mL (≈ 1.38 µM). Consider `CC[C@H]1OC(=O)[C@H](C)[C@@H](O[C@H]2C[C@@](C)(OC)[C@@H](O)[C@H](C)O2)[C@H](C)[C@@H](O[C@@H]2O[C@H](C)C[C@H](N(C)C)[C@H]2O)[C@](C)(O)C[C@@H](C)CN(C)[C@H](C)[C@@H](O)[C@]1(C)O` [ATM, azithromycin], for which, in experiment [4], the MIC values result was “less than or equal to 0.25 μg/ml”.

(Values after US11649477B2, “Assays and reagents for antimicrobial susceptibility testing” (SELUX DIAGNOSTICS, INC., priority 2018, dated 2023).)
